Holding throughout (format): biochemical
In one experiment the target is T1, JAK1 (Homo sapiens, UniProt P23458).
T1 construct: purchased Invitrogen Corporation, Carlsbad, Calif; PV4775
Kind of experiment: JAK1 Inhibition Assay (Omnia kinase fluorescence peptide substrate assay). The following applies: averaged IC50 ranges; assay of Example B; 40 μM (Km app) or 1 mM ATP, 15 nM JAK1.

For a further experiment, the target named is T2, Human Tyk2 kinase domain (Homo sapiens, UniProt P29597).
T2 construct: comprising amino acids 886 to 1187 with 10 additional histidine residues; 10xHis (histidine tag) (C, cleaved yes); made in house
T2 sequence (P29597 886-1187): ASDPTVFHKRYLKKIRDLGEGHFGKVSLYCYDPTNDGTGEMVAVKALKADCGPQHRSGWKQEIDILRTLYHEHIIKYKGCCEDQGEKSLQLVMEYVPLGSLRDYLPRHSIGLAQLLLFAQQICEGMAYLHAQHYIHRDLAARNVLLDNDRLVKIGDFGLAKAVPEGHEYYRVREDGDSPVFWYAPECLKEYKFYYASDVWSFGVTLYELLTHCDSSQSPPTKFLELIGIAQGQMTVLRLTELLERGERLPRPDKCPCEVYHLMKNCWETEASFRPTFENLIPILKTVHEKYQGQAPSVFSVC
Briefly: Tyk2 Inhibition Assay (Omnia kinase fluorescence peptide substrate assay). The following applies: averaged IC50 ranges; assay of Example A; 10 μM (Km app) or 1 mM ATP, 2 nM Tyk2. An outline of the steps: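 2 nM His-tag-cleaved kinase domain (aa 886–1187) with 8 μM Omnia Y12 peptide, 10 μM (Km app) or 1 mM ATP, pH 7.4 HEPES/10 mM MgCl2, 2% DMSO. Fluorescence (ex 360/em 485 nm) every 50 s for 45 min; IC50 from 4-parameter fit of POC, top dose 10 μM.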

The next experiment deals with T3, JAK3 (Homo sapiens, UniProt P52333).
T3 construct: purchased Invitrogen Corporation, Carlsbad, Calif; PV4080
T3 sequence (P52333 1-1124): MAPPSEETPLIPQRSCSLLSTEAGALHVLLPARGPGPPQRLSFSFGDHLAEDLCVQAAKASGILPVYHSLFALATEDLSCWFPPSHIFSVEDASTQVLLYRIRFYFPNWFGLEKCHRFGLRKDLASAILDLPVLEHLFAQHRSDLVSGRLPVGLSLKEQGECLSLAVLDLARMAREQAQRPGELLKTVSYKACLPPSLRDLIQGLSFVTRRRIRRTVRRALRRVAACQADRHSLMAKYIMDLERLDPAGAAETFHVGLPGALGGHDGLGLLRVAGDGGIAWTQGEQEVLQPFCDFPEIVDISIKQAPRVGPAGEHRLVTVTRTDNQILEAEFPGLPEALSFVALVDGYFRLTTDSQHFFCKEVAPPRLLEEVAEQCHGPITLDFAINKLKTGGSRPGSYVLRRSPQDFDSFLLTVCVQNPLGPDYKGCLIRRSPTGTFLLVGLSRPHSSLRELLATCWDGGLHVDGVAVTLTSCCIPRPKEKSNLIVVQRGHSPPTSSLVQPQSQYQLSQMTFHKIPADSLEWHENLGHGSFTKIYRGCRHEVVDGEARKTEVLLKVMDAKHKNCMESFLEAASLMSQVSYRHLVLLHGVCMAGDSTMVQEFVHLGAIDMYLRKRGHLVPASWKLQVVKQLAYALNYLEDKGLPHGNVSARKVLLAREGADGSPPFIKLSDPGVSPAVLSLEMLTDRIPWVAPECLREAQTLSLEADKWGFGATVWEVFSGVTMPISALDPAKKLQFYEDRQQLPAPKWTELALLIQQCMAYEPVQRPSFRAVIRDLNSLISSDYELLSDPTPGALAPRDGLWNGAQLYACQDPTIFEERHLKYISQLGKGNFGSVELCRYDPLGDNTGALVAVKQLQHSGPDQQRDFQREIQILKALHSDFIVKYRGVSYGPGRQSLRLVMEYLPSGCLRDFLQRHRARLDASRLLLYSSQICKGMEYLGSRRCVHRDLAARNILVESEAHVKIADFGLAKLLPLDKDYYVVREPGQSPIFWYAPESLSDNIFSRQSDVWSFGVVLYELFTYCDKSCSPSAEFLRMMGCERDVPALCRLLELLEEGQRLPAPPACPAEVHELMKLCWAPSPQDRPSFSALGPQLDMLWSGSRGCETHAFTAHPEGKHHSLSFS
Briefly: JAK3 Inhibition Assay (Omnia kinase fluorescence peptide substrate assay). The following applies: averaged IC50 ranges; assay of Example D; 10 μM (Km app) or 1 mM ATP, 2.5 nM JAK3. An outline of the steps:
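Kinase at 2.5 nM with 10 µM Omnia Y7 peptide and 10 µM (Km app) or 1 mM ATP in 25 mM HEPES pH 7.4, 10 mM MgCl2, 1 mM DTT, 0.01% Triton X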

The next experiment concerns the target T4, JAK2 (Homo sapiens, UniProt O60674).
T4 construct: purchased Invitrogen Corporation, Carlsbad, Calif; PV4288
Briefly: JAK2 Inhibition Assay (Omnia kinase fluorescence peptide substrate assay). The following applies: averaged IC50 ranges; assay of Example C; 25 μM (Km app) or 1 mM ATP, 5 nM JAK2. The gist of the method: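 5 nM JAK2 phosphorylated 10 μM Omnia Y7 peptide with ATP at 25 μM (Km app) or 1 mM, in 25 mM HEPES pH 7.4, 10 mM MgCl2, 0.01% Triton X-100, 1 mM DTT, 2% DMSO. Fluorescence (360/485 nm) was read every 50 s for 45 min. 10-point 3-fold series from 10 μM; POC versus uninhibited and background controls, 4-parameter logistic IC50.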

T4 sequence (O60674 whole entry): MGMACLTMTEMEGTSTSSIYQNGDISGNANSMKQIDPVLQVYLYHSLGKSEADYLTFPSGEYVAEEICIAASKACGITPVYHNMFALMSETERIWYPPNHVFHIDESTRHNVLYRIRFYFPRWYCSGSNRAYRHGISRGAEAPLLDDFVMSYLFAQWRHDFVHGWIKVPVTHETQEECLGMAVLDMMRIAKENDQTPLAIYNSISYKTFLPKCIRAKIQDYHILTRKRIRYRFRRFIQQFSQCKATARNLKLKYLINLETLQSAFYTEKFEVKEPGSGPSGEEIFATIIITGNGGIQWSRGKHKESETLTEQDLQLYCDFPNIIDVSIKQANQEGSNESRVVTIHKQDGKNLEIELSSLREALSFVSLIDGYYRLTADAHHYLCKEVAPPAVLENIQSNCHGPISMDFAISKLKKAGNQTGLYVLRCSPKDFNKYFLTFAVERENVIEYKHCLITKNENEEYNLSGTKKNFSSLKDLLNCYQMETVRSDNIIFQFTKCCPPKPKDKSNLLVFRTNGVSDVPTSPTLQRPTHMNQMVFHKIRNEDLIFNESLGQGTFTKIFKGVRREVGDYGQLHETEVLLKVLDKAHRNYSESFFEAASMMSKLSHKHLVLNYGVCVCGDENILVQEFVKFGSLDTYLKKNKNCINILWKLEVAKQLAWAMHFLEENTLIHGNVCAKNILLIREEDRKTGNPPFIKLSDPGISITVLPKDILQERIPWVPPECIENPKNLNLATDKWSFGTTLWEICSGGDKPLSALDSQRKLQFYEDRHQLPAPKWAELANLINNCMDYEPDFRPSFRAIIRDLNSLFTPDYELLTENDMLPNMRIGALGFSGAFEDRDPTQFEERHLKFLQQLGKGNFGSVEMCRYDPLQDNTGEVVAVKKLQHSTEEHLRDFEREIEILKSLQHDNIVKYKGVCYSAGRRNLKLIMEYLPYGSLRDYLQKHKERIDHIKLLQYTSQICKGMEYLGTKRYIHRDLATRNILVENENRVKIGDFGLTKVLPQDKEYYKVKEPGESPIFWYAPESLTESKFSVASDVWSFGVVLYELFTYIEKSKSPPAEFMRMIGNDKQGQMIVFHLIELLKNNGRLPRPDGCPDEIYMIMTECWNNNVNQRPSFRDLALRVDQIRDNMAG
T1 sequence (P23458 whole entry): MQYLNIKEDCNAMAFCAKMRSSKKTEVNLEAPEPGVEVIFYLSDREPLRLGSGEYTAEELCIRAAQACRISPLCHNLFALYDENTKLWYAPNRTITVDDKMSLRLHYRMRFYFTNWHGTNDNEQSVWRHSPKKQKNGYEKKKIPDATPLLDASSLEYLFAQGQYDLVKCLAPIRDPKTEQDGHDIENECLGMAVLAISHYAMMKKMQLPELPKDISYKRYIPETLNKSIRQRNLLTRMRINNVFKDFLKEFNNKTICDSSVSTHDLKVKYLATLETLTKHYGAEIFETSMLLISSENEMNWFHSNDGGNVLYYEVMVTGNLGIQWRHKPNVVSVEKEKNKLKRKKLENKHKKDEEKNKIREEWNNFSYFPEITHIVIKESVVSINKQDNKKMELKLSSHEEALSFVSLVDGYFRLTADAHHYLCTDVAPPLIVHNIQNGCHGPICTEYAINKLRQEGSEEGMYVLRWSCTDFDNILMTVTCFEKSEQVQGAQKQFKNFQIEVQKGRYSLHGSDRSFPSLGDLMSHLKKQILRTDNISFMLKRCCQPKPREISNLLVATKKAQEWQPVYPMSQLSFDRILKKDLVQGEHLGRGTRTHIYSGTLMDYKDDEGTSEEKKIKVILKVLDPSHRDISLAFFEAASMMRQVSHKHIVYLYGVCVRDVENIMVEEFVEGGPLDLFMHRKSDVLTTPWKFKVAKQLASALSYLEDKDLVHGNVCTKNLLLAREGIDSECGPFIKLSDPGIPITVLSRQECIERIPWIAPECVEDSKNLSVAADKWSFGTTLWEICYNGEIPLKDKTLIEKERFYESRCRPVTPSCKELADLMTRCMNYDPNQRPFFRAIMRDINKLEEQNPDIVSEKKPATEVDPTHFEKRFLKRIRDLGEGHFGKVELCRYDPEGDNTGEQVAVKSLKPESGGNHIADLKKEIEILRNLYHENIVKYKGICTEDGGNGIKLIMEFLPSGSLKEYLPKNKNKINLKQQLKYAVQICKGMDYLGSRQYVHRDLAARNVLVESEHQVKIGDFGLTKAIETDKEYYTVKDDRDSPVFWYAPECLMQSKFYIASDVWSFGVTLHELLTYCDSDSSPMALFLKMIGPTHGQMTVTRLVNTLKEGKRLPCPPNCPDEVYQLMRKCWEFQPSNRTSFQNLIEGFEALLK

The term IC50 denotes the concentration that gives 50% inhibition. Low values mean inhibition by little substance, high ones a need for much substance. As for `Cn1cc(-c2cc3nccn3c(-c3cnn(C4(CC#N)COC4)c3)n2)cn1` [Example 24, 2-(3-(4-(7-(1-methyl-1H-pyrazol-4-yl)imidazo[1,2-c]pyrimidin-5-yl)-1H-pyrazol-1-yl)oxetan-3-yl)acetonitrile], the IC50 was 10 to 100 nM against JAK1, 10 to 100 nM at Human Tyk2 kinase domain, greater than 1000 nM against JAK3 and 10 to 100 nM against JAK2.

For `Cn1cc(-c2cc3ncc(Cl)n3c(-c3cnn(C(CC#N)C4CC4)c3)n2)cn1` (stereo not drawn) [Example 25, 3-(4-(3-chloro-7-(1-methyl-1H-pyrazol-4-yl)imidazo[1,2-c]pyrimidin-5-yl)-1H-pyrazol-1-yl)-3-cyclopropylpropanenitrile], the IC50 at JAK1 is 10 to 100 nM; against Human Tyk2 kinase domain, less than 10 nM; on JAK3, 100 to 1000 nM; at JAK2, 10 to 100 nM.

Consider `Cn1cc(-c2cc3ncc(C#N)n3c(-c3cnn(C(CC#N)C4CC4)c3)n2)cn1` (stereo not drawn) [Example 26, 5-(1-(2-cyano-1-cyclopropylethyl)-1H-pyrazol-4-yl)-7-(1-methyl-1H-pyrazol-4-yl)imidazo[1,2-c]pyrimidine-3-carbonitrile], for which the IC50 on JAK1 was greater than 1000 nM; against Human Tyk2 kinase domain it was 100 to 1000 nM; on JAK3, greater than 1000 nM; on JAK2 it was 100 to 1000 nM.

For the compound `CC(=O)N1CCC(C(CC#N)n2cc(-c3nc(-c4cnn(C)c4)cc4nccn34)cn2)CC1` (stereo not drawn) [Example 27, 3-(1-acetylpiperidin-4-yl)-3-(4-(7-(1-methyl-1H-pyrazol-4-yl)imidazo[1,2-c]pyrimidin-5-yl)-1H-pyrazol-1-yl)propanenitrile], the IC50 on JAK1 was 100 to 1000 nM; at Human Tyk2 kinase domain, 100 to 1000 nM; against JAK3 it was greater than 1000 nM; against JAK2, 100 to 1000 nM.

In the case of `CN1CCC(CC#N)(n2cc(-c3nc(-c4cnn(C)c4)cc4nccn34)cn2)CC1` [Example 28, 2-(1-methyl-4-(4-(7-(1-methyl-1H-pyrazol-4-yl)imidazo[1,2-c]pyrimidin-5-yl)-1H-pyrazol-1-yl)piperidin-4-yl)acetonitrile], the IC50 against JAK1 was greater than 1000 nM; against Human Tyk2 kinase domain, 10 to 100 nM; against JAK3 it was greater than 1000 nM; at JAK2, 100 to 1000 nM.

On to `CCN1CCC(CC#N)(n2cc(-c3nc(-c4cnn(C)c4)cc4nccn34)cn2)CC1` [Example 29, 2-(1-ethyl-4-(4-(7-(1-methyl-1H-pyrazol-4-yl)imidazo[1,2-c]pyrimidin-5-yl)-1H-pyrazol-1-yl)piperidin-4-yl)acetonitrile], for which the IC50 is greater than 1000 nM at JAK1, 100 to 1000 nM at Human Tyk2 kinase domain, greater than 1000 nM on JAK3 and greater than 1000 nM against JAK2.

As to `CCCN1CCC(CC#N)(n2cc(-c3nc(-c4cnn(C)c4)cc4nccn34)cn2)CC1` [Example 30, 2-(4-(4-(7-(1-methyl-1H-pyrazol-4-yl)imidazo[1,2-c]pyrimidin-5-yl)-1H-pyrazol-1-yl)-1-propylpiperidin-4-yl)acetonitrile], the IC50 was greater than 1000 nM against JAK1, 100 to 1000 nM against Human Tyk2 kinase domain, greater than 1000 nM at JAK3 and greater than 1000 nM against JAK2.

On to `Cn1cc(-c2cc3nccn3c(-c3cnn(C4(CC#N)CCN(CC(F)(F)F)CC4)c3)n2)cn1` [Example 31, 2-(4-(4-(7-(1-methyl-1H-pyrazol-4-yl)imidazo[1,2-c]pyrimidin-5-yl)-1H-pyrazol-1-yl)-1-(2,2,2-trifluoroethyl)piperidin-4-yl)acetonitrile], for which the IC50 at JAK1 is 100 to 1000 nM; against Human Tyk2 kinase domain, 10 to 100 nM; at JAK3, greater than 1000 nM; at JAK2, 100 to 1000 nM.

For `C[Si](C)(C)CCOCn1cc(-c2cc3nccn3c(-c3cnn(C(CC#N)C4CC4)c3)n2)cn1` (stereo not drawn) [Example 32, 3-cyclopropyl-3-(4-(7-(1-((2-(trimethylsilyl)ethoxy)methyl)-1H-pyrazol-4-yl)imidazo[1,2-c]pyrimidin-5-yl)-1H-pyrazol-1-yl)propanenitrile], the IC50 at JAK1 lay within 100 to 1000 nM; against Human Tyk2 kinase domain, 10 to 100 nM; at JAK3, 100 to 1000 nM; on JAK2, 10 to 100 nM.

Regarding `N#CCC(C1CC1)n1cc(-c2nc(-c3cn[nH]c3)cc3nccn23)cn1` (stereo not drawn) [Example 33, 3-(4-(7-(1H-pyrazol-4-yl)imidazo[1,2-c]pyrimidin-5-yl)-1H-pyrazol-1-yl)-3-cyclopropylpropanenitrile], the IC50 at JAK1 is 100 to 1000 nM; at Human Tyk2 kinase domain, 10 to 100 nM; against JAK3 it was greater than 1000 nM; against JAK2, 100 to 1000 nM.

For `CC(C)n1cc(-c2cc3nccn3c(-c3cnn(C(CC#N)C4CC4)c3)n2)cn1` (stereo not drawn) [Example 34, 3-Cyclopropyl-3-(4-(7-(1-isopropyl-1H-pyrazol-4-yl)imidazo[1,2-c]pyrimidin-5-yl)-1H-pyrazol-1-yl)propanenitrile], the IC50 against JAK1 was 100 to 1000 nM; against Human Tyk2 kinase domain, less than 10 nM; against JAK3, 100 to 1000 nM; on JAK2, 10 to 100 nM.

In the case of `N#CCC(C1CC1)n1cc(-c2nc(-c3cnn(Cc4cccnc4)c3)cc3nccn23)cn1` (stereo not drawn) [Example 35, 3-cyclopropyl-3-(4-(7-(1-(pyridin-3-ylmethyl)-1H-pyrazol-4-yl)imidazo[1,2-c]pyrimidin-5-yl)-1H-pyrazol-1-yl)propanenitrile], the IC50 was 100 to 1000 nM at JAK1, less than 10 nM on Human Tyk2 kinase domain, 100 to 1000 nM at JAK3 and 10 to 100 nM against JAK2.

For the compound `N#CCC(C1CC1)n1cc(-c2nc(-c3cnn(C4CCOCC4)c3)cc3nccn23)cn1` (stereo not drawn) [Example 36, 3-cyclopropyl-3-(4-(7-(1-(tetrahydro-2H-pyran-4-yl)-1H-pyrazol-4-yl)imidazo[1,2-c]pyrimidin-5-yl)-1H-pyrazol-1-yl)propanenitrile], the IC50 was 100 to 1000 nM against JAK1, less than 10 nM at Human Tyk2 kinase domain, 100 to 1000 nM on JAK3 and 10 to 100 nM on JAK2.

For the compound `CC(C)Cn1cc(-c2cc3nccn3c(-c3cnn(C(CC#N)C4CC4)c3)n2)cn1` (stereo not drawn) [Example 37, 3-cyclopropyl-3-(4-(7-(1-isobutyl-1H-pyrazol-4-yl)imidazo[1,2-c]pyrimidin-5-yl)-1H-pyrazol-1-yl)propanenitrile], the IC50 is 100 to 1000 nM against JAK1, 10 to 100 nM on Human Tyk2 kinase domain, greater than 1000 nM on JAK3 and 10 to 100 nM against JAK2.

For the compound `N#CCC(C1CC1)n1cc(-c2nc(-c3cnn(C4COC4)c3)cc3nccn23)cn1` (stereo not drawn) [Example 38, 3-Cyclopropyl-3-(4-(7-(1-(oxetan-3-yl)-1H-pyrazol-4-yl)imidazo[1,2-c]pyrimidin-5-yl)-1H-pyrazol-1-yl)propanenitrile], the IC50 on JAK1 is 100 to 1000 nM; at Human Tyk2 kinase domain it was less than 10 nM; on JAK3, 100 to 1000 nM; against JAK2 it was 10 to 100 nM.

The record behind these values is patent US8962596B2 (Array BioPharma Inc., priority 2010, dated 2015).
